Experimental data published in patent US8105835B2, “Method for micropropagation of monocots based on sustained totipotent cell cultures” (The University of South Carolina, priority 2007, dated 2012).

Experiments:
[1] = test system: Arundo donax explants (cross-sectional segments of immature inflorescence); assay: Phosphinothricin selection of explants on primary solid culture medium; format: cell-based; conditions: 10 mg/L, four weeks selection, FIG. 6A
Procedure: Agrobacterium tumefaciens carrying the plasmid, pMSF3022, was used to transform Arundo donax explants (cross-sectional segments of immature inflorescence). Plasmid pMSF3022 carries the bar gene that confers resistance to phosphinothricin and provides a positive selection and the gfp (green fluorescent protein) gene which provides a visual selection of transformants. Antibiotic resistant transformants were selected for four weeks after gene transfer by incubating the explants on primary solid culture medium with or without phosphinothricin and containing ticarcillin at […] concentration to eliminate residual Agrobacterium. As shown in FIG. 6A control explants (untransformed) were killed by 10 mg/L of phosphinothricin (antibiotic/herbicide). In the absence of the antibiotic/herbicide, the control explants develop embryogenic callus (FIG. 6B). In contrast, the explants that were cocultivated with the A. tumefaciens carrying the plasmid, pMSF3022 (transformed), were able to develop embryogenic callus in the presence of 10 mg/L of phosphinothricin (FIG. 6C).

[2] = test system: monocot embryogenic cell culture; assay: Transfer of culture from auxin plus cytokinin medium to medium with cytokinin only; format: cell-based; conditions: medium without auxin but maintaining the cytokinin
Procedure: As known to those of skill in the art, cytokinins, both natural and synthetic, are used to induce shoot formation while inhibiting root formation (Trigiano and Gray, Plant tissue culture concepts and laboratory exercises. Second ed., Boca Raton: CRC Press (2000)).
In one embodiment, the tertiary medium is prepared by adding to sterile water (a) the cytokinin, thidiazuron; (b) sucrose, 30 g/l; (c) Miller's salt solution (6% w/v, KH2 PO4), about 3 ml; and (d) MS salts, 4.3 g/l. In one embodiment the concentration of the thidiazuron is from about 0.01 mg/l to about 1 mg/l. In another embodiment, the concentration of the thidiazuron is about 0.02 mg/l.

CP(=O)(O)CC[C@H](N)C(=O)O [phosphinothricin]
effect on control (untransformed) explants [1]: killed

O=C(Nc1ccccc1)Nc1cnns1 [thidiazuron]
effect on shoot elongation and root formation [2]: not only was shoot elongation promoted but unexpectedly root formation also resulted
